Data on 2 compounds can be found in patent US20250090489A1, “CATIONIC POLYMERIC NANOCARRIERS INHIBIT CHEMOTHERAPY-INDUCED CANCER METASTASIS AND COGNITIVE IMPAIRMENT” (The Trustees of Columbia University in the City of New York, priority 2022, published 2025).

The conditions of data set [1]: Balb/c mice; compared to saline control.
Protocol: In order to detect if mice experienced any behavioral changes under treatments, open field tests and pain sensitivity behavioral tests were performed.
In data set [2] the test system is MDA-MB-231 human breast tumor with lung metastasis. Particulars: NSG mouse.
Description: The anticancer efficacy of the nanoparticles has been evaluated in a NSG mouse model bearing MDA-MB-231 human breast tumor with lung metastasis. […] A thorough characterization of lung metastasis has been performed with a combination of IVIS imaging, H&E staining, and machine learning.

Consider `COc1cccc2c1C(=O)c1c(O)c3c(c(O)c1C2=O)C[C@@](O)(C(=O)CO)C[C@@H]3O[C@H]1C[C@H](N)[C@H](O)[C@H](C)O1` [doxorubicin], for which the “distance traveled in open field test” value in data set [1] was “significant attenuation in the distance”.
As for `CC(=O)O[C@H]1C(=O)[C@@]2(C)[C@H]([C@H](OC(=O)c3ccccc3)[C@]3(O)C[C@H](OC(=O)[C@H](O)[C@@H](NC(=O)c4ccccc4)c4ccccc4)C(C)=C1C3(C)C)[C@]1(OC(C)=O)CO[C@@H]1C[C@@H]2O` [paclitaxel free drug, paclitaxel], the lung metastasis result in data set [2] (MDA-MB-231, IVIS imaging, H&E staining, machine learning) was “shows no therapeutic effect to metastasis, and even induce more metastasis”. Besides, in data set [2] (MDA-MB-231 tumor), the “primary tumor inhibition efficacy” value is “inhibits primary tumor”.
